Measured values from patent US8802597B2, “Herbicidal pyrimidines” (E I du Pont de Nemours and Company, priority 2003, dated 2014).

Columns and labels:
Format in all cases: in vivo
[1] = system: duck salad (Heteranthera limosa); assay: Test B flooded paddy test; conditions: Flood, 1000 g ai/ha; scale 0 to 100
Summary of the method: (§1)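 Visual injury scoring (0 = no effect, 100 = complete control) versus controls made 13 to 15 days after treatment in the greenhouse. Test species were grown in flooded paddy to the 2-leaf stage: rice, barnyardgrass, umbrella sedge, duck salad.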

[2] = system: umbrella sedge (Cyperus difformis); assay: Test B flooded paddy test; conditions: Flood, 1000 g ai/ha; scale 0 to 100
Summary of the method: as §1

rice (Oryza sativa) = assay: Test B flooded paddy test; conditions: Flood, 1000 g ai/ha; scale 0 to 100
Summary of the method: as §1

[3] = system: barnyardgrass (Echinochloa crus-galli); assay: Test B flooded paddy test; conditions: Flood, 1000 g ai/ha; scale 0 (no effect) to 100 (complete control)
Summary of the method: as §1

[4] = system: blackgrass (Alopecurus myosuroides); assay: Test B postemergence; conditions: for Blackgrass plant response rating: 125 g ai/ha, scale 0 to 100 (0 no effect, 100 complete control); for Plant response rating, Blackgrass: 500 g ai/ha, scale 0 to 100
Summary of the method: (§2)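 Visual injury scored 0 (no effect) to 100 (complete control) versus untreated controls after 13 to 15 days in greenhouse. Treatments were pre- or postemergence sprays of surfactant-containing solvent formulations; postemergence plants at 1- to 4-leaf stage, 2 to 18 cm.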

wild oat (Avena fatua) = assay: Test B postemergence; conditions: for Oat, Wild plant response rating: 125 g ai/ha, scale 0 to 100 (0 no effect, 100 complete control); for Plant response rating, Oat, Wild: 500 g ai/ha, scale 0 to 100
Summary of the method: as §2

[5] = system: velvetleaf (Abutilon theophrasti); assay: Test B pre/postemergence
Summary of the method: as §2

[6] = system: Surinam grass (Brachiaria decumbens); assay: Test B pre/postemergence
Summary of the method: as §2

[7] = system: cocklebur (Xanthium strumarium); assay: Test B pre/postemergence
Summary of the method: as §2

[8] = system: crabgrass (Digitaria sanguinalis); assay: Test B pre/postemergence
Summary of the method: as §2

[9] = system: giant foxtail (Setaria faberii); assay: Test B pre/postemergence
Summary of the method: as §2

[10] = system: morningglory (Ipomoea coccinea); assay: Test B pre/postemergence
Summary of the method: as §2

[11] = system: wheat (Triticum aestivum); assay: Test B pre/postemergence
Summary of the method: as §2

corn (Zea mays) = assay: Test B pre/postemergence
Summary of the method: as §2

[12] = system: lambsquarters (Chenopodium album); assay: Test B pre/postemergence
Summary of the method: as §2

[13] = system: pigweed (Amaranthus retroflexus); assay: Test B pre/postemergence
Summary of the method: as §2

[14] = system: barnyardgrass (Echinochloa crus-galli); assay: Test B pre/postemergence
Summary of the method: as §2

[15] = Postemergence, 125 g ai/ha, scale 0 to 100 (0 no effect, 100 complete control)
[16] = Postemergence, 500 g ai/ha, scale 0 to 100
[17] = Preemergence, 125 g ai/ha, scale 0 to 100 (0 no effect, 100 complete control)
[18] = Preemergence, 500 g ai/ha, scale 0 to 100 (0 no effect, 100 complete control)

Compound: CCOC(=O)c1nc(C2CC2)nc(N=CN(C)C)c1Br [Compound 40]
- Plant response rating, Ducksalad [1]: 80
- Plant response rating, Sedge, Umbrella [2]: 70
- Plant response rating, Rice (rice (Oryza sativa)): 60
- Plant response rating, Barnyardgrass [3]: 70
- Blackgrass plant response rating [4]: 50
- Plant response rating, Blackgrass [4]: 60
- Oat, Wild plant response rating (wild oat (Avena fatua)): 40
- Plant response rating, Oat, Wild (wild oat (Avena fatua)): 60
- Velvetleaf plant response rating [5, 15]: 0
- Plant response rating, Velvetleaf [5, 16]: 90
- Plant response rating, Velvetleaf [5, 17]: 90
- Velvetleaf plant response rating [5, 18]: 90
- Surinam Grass plant response rating [6, 15]: 0
- Plant response rating, Surinam Grass [6, 16]: 70
- Plant response rating, Surinam Grass [6, 17]: 50
- Surinam Grass plant response rating [6, 18]: 70
- Cocklebur plant response rating [7, 15]: 0
- Plant response rating, Cocklebur [7, 16]: 90
- Plant response rating, Cocklebur [7, 17]: 90
- Cocklebur plant response rating [7, 18]: 100
- Crabgrass plant response rating [8, 15]: 0
- Plant response rating, Crabgrass [8, 16]: 80
- Plant response rating, Crabgrass [8, 17]: 60
- Crabgrass plant response rating [8, 18]: 80
- Foxtail, Giant plant response rating [9, 15]: 0
- Plant response rating, Foxtail, Giant [9, 16]: 60
- Plant response rating, Foxtail, Giant [9, 17]: 20
- Foxtail, Giant plant response rating [9, 18]: 80
- Morningglory plant response rating [10, 15]: 0
- Plant response rating, Morningglory [10, 16]: 100
- Plant response rating, Morningglory [10, 17]: 90
- Morningglory plant response rating [10, 18]: 100
- Wheat plant response rating [11, 15]: 50
- Plant response rating, Wheat [11, 16]: 60
- Plant response rating, Wheat [11, 17]: 40
- Plant response rating, Wheat [11, 18]: 70
- Corn plant response rating (corn (Zea mays); [15]): 0
- Plant response rating, Corn (corn (Zea mays); [16]): 60
- Plant response rating, Corn (corn (Zea mays); [17]): 0
- Corn plant response rating (corn (Zea mays); [18]): 50
- Lambsquarters plant response rating [12, 15]: 0
- Plant response rating, Lambsquarters [12, 16]: 100
- Plant response rating, Lambsquarters [12, 17]: 100
- Lambsquarters plant response rating [12, 18]: 100
- Pigweed plant response rating [13, 15]: 0
- Plant response rating, Pigweed [13, 16]: 100
- Plant response rating, Pigweed [13, 17]: 90
- Pigweed plant response rating [13, 18]: 100
- Barnyardgrass plant response rating [14, 15]: 0
- Plant response rating, Barnyardgrass [14, 16]: 90
- Plant response rating, Barnyardgrass [14, 17]: 50
- Barnyardgrass plant response rating [14, 18]: 90

Compound: CC(C)COC(=O)c1nc(C2CC2)nc(N)c1Br [Compound 17]
- Plant response rating, Ducksalad [1]: 90
- Plant response rating, Sedge, Umbrella [2]: 50
- Plant response rating, Rice (rice (Oryza sativa)): 50
- Plant response rating, Barnyardgrass [3]: 80
- Blackgrass plant response rating [4]: 0
- Plant response rating, Blackgrass [4]: 70
- Oat, Wild plant response rating (wild oat (Avena fatua)): 0
- Plant response rating, Oat, Wild (wild oat (Avena fatua)): 50
- Velvetleaf plant response rating [5, 15]: 60
- Plant response rating, Velvetleaf [5, 16]: 100
- Plant response rating, Velvetleaf [5, 17]: 70
- Velvetleaf plant response rating [5, 18]: 90
- Surinam Grass plant response rating [6, 15]: 30
- Plant response rating, Surinam Grass [6, 16]: 80
- Plant response rating, Surinam Grass [6, 17]: 30
- Surinam Grass plant response rating [6, 18]: 90
- Cocklebur plant response rating [7, 15]: 100
- Plant response rating, Cocklebur [7, 16]: 100
- Plant response rating, Cocklebur [7, 17]: 80
- Cocklebur plant response rating [7, 18]: 90
- Crabgrass plant response rating [8, 15]: 20
- Plant response rating, Crabgrass [8, 16]: 50
- Plant response rating, Crabgrass [8, 17]: 70
- Crabgrass plant response rating [8, 18]: 100
- Foxtail, Giant plant response rating [9, 15]: 10
- Plant response rating, Foxtail, Giant [9, 16]: 70
- Plant response rating, Foxtail, Giant [9, 17]: 20
- Foxtail, Giant plant response rating [9, 18]: 70
- Morningglory plant response rating [10, 15]: 100
- Plant response rating, Morningglory [10, 16]: 100
- Plant response rating, Morningglory [10, 17]: 100
- Morningglory plant response rating [10, 18]: 100
- Wheat plant response rating [11, 15]: 0
- Plant response rating, Wheat [11, 16]: 60
- Plant response rating, Wheat [11, 17]: 40
- Wheat plant response rating [11, 18]: 60
- Corn plant response rating (corn (Zea mays); [15]): 0
- Plant response rating, Corn (corn (Zea mays); [16]): 80
- Plant response rating, Corn (corn (Zea mays); [17]): 0
- Corn plant response rating (corn (Zea mays); [18]): 60
- Lambsquarters plant response rating [12, 15]: 100
- Plant response rating, Lambsquarters [12, 16]: 100
- Plant response rating, Lambsquarters [12, 17]: 90
- Lambsquarters plant response rating [12, 18]: 100
- Pigweed plant response rating [13, 15]: 70
- Plant response rating, Pigweed [13, 16]: 90
- Plant response rating, Pigweed [13, 17]: 80
- Pigweed plant response rating [13, 18]: 100
- Barnyardgrass plant response rating [14, 15]: 20
- Plant response rating, Barnyardgrass [14, 16]: 90
- Plant response rating, Barnyardgrass [14, 17]: 20
- Barnyardgrass plant response rating [14, 18]: 80

Compound: COC(=O)c1nc(C2CC2C)nc(N)c1Br (centres unmarked) [Compound 28]
- Plant response rating, Ducksalad [1]: 30
- Plant response rating, Sedge, Umbrella [2]: 0
- Plant response rating, Rice (rice (Oryza sativa)): 0
- Plant response rating, Barnyardgrass [3]: 0
- Blackgrass plant response rating [4]: 10
- Plant response rating, Blackgrass [4]: 30
- Oat, Wild plant response rating (wild oat (Avena fatua)): 0
- Plant response rating, Oat, Wild (wild oat (Avena fatua)): 10
- Velvetleaf plant response rating [5, 15]: 70
- Plant response rating, Velvetleaf [5, 16]: 90
- Plant response rating, Velvetleaf [5, 17]: 80
- Velvetleaf plant response rating [5, 18]: 90
- Surinam Grass plant response rating [6, 15]: 10
- Plant response rating, Surinam Grass [6, 16]: 50
- Surinam Grass plant response rating [6, 18]: 60
- Cocklebur plant response rating [7, 15]: 90
- Plant response rating, Cocklebur [7, 16]: 100
- Plant response rating, Cocklebur [7, 17]: 80
- Cocklebur plant response rating [7, 18]: 90
- Crabgrass plant response rating [8, 15]: 30
- Plant response rating, Crabgrass [8, 16]: 50
- Plant response rating, Crabgrass [8, 17]: 70
- Crabgrass plant response rating [8, 18]: 80
- Foxtail, Giant plant response rating [9, 15]: 20
- Plant response rating, Foxtail, Giant [9, 16]: 40
- Plant response rating, Foxtail, Giant [9, 17]: 30
- Foxtail, Giant plant response rating [9, 18]: 50
- Morningglory plant response rating [10, 15]: 90
- Plant response rating, Morningglory [10, 16]: 90
- Plant response rating, Morningglory [10, 17]: 80
- Morningglory plant response rating [10, 18]: 90
- Wheat plant response rating [11, 15]: 0
- Plant response rating, Wheat [11, 16]: 10
- Plant response rating, Wheat [11, 17]: 10
- Wheat plant response rating [11, 18]: 40
- Corn plant response rating (corn (Zea mays); [15]): 0
- Plant response rating, Corn (corn (Zea mays); [16]): 0
- Plant response rating, Corn (corn (Zea mays); [17]): 0
- Corn plant response rating (corn (Zea mays); [18]): 0
- Lambsquarters plant response rating [12, 15]: 90
- Plant response rating, Lambsquarters [12, 16]: 90
- Plant response rating, Lambsquarters [12, 17]: 80
- Lambsquarters plant response rating [12, 18]: 100
- Pigweed plant response rating [13, 15]: 80
- Plant response rating, Pigweed [13, 16]: 90
- Plant response rating, Pigweed [13, 17]: 80
- Pigweed plant response rating [13, 18]: 90
- Barnyardgrass plant response rating [14, 15]: 20
- Plant response rating, Barnyardgrass [14, 16]: 50
- Plant response rating, Barnyardgrass [14, 17]: 10
- Barnyardgrass plant response rating [14, 18]: 30
